The nature of data set [1]: Particle diameter and polydispersity index (PdI) of mRNA-encapsulating lipid nanoparticles. It counts as physicochemical. The settings on record: EPO mRNA-encapsulating lipid nanoparticles, compound:DSPC:cholesterol:DMG-PEG2000=50:10:38.5:1.5; diluted with PBS. The protocol:
(§1) The compounds shown in Table 9, 1,2-distearoyl-sn-glycero-3-phosphocholine (product name: COATSOME® MC-8080; NOF corporation) (hereinafter, DSPC), cholesterol (product name: Cholesterol HP; Nippon Seika Co., Ltd.), and 1,2-dimyristoyl-rac-glycero-3-(methylpolyoxyethylene 2000) (hereinafter, DMG-PEG2000) (product name: SUNBRIGHT® GM-020; NOF corporation) were dissolved in ethanol at a molar ratio (mol %) of compounds shown in Table 9:1,2-distearoyl-sn-glycero-3-phosphocholine:cholesterol:DMG-PEG2000=50:10:38.5:1.5 such that the total lipid concentration was 12.5 mmol/L, thereby obtaining an oil phase.
(§2) EPO mRNA (product name: CleanCap EPO mRNA (5moU); TriLink) was diluted with 50 mmol/L citrate buffer having a pH 4.0 such that the weight ratio of total lipid concentration to mRNA concentration is about 20:1, thereby obtaining a water phase. Then, the water phase and the oil phase were mixed together using NanoAssemblr (Precision NanoSystems) such that the volume ratio of water phase:oil phase was 3:1, and the mixed solution was 2-fold diluted with phosphate buffered physiological saline (PBS) or water, thereby obtaining a dispersion liquid of mRNA lipid nanoparticles. The dispersion liquid was dialyzed with 20 mM Tris buffer solution containing 8% sucrose using a dialysis cassette (Slide-A-Lyzer G2, MWCO: 10 kD, Thermo Fisher Scientific) to remove ethanol, thereby obtaining EPO mRNA-encapsulating lipid nanoparticles.
The particle diameter and the polydispersity index (PdI) of the mRNA-encapsulating lipid nanoparticles were obtained by measuring a dispersion liquid of lipid nanoparticles diluted with phosphate buffered physiological saline (PBS) using a particle size analyzer NanoSAQLA (Otsuka Electronics Co., Ltd.).

The nature of data set [2]: Encapsulation rate of mRNA in lipid nanoparticles. It counts as physicochemical. Particulars: EPO mRNA-encapsulating lipid nanoparticles, compound:DSPC:cholesterol:DMG-PEG2000=50:10:38.5:1.5. The protocol:
as §1, §2
<Evaluation of Encapsulation Rate of mRNA> (Quantification of Total mRNA Concentration)
EPO mRNA was diluted with MilliQ water to prepare a diluted sample in 2-fold dilution series from 100 μg/mL to 3.1 μg/mL, and a standard solution for calibration was prepared. 50 μL of the standard solution for calibration or the mRNA lipid nanoparticles was mixed with 450 μL of methanol to prepare a measurement solution.
The absorbance of each measurement solution at 260 nm and 330 nm was measured using a UV plate reader (Multiskan Go, Thermo Fisher Scientific), the absorbance at 330 nm was subtracted from the absorbance at 260 nm, and the result was used as the absorbance of each measurement solution. The total water phase nucleic acid concentration was calculated from the calibration curve using the absorbance of each sample measurement solution.
(Quantification of mRNA Concentration in Outer Water Phase)
The concentration of the outer water phase nucleic acid was quantified by a standard addition method using a QuanT-iT RiboGreen RNA Assay Kit (Thermo Fisher Scientific). First, a 20×TE buffer included in the above kit was diluted with water, thereby obtaining a 1×TE buffer. TE represents Tris/EDTA (ethylenediaminetetraacetic acid). EPO mRNA was diluted with a TE buffer such that the final concentration was 0 to 400 ng/mL to prepare a nucleic acid diluted series. 10 μL of mRNA lipid nanoparticles diluted 5-fold with TE buffer and 90 μL of a nucleic acid dilution series were mixed in a 96-well plate, 100 μL of a Ribogreen reagent diluted 200-fold with TE buffer was added to each well, and then fluorescence (excitation wavelength: 485 nm, fluorescence wavelength: 535 nm) was measured using a fluorescence plate reader (Infinite 200 Pro M nano+, TECAN). From the obtained results, the outer water phase nucleic acid concentration of each measurement solution was calculated according to the standard addition method.
(Calculation of Encapsulation Rate)
By using the quantification results of the total mRNA concentration and the mRNA concentration in the outer water phase that were obtained through the above steps, the mRNA encapsulation rate of the mRNA lipid nanoparticles was calculated according to the following Equation.

The test system of another data set is ICR mice. The data set can be described thus: EPO expression level in mice after intravenous EPO mRNA lipid nanoparticles (human EPO ELISA of plasma). Format: in vivo. The settings on record: mRNA dosage 0.1 mg/kg, plasma 6 hours after administration, Comparative Example set to 1. The protocol:
as §1, §2
The dispersion liquid of mRNA lipid nanoparticles prepared in above <Preparation of EPO mRNA-encapsulating lipid nanoparticles> was intravenously administered to ICR mice at a mRNA dosage of 0.1 mg/kg. 6 hours after the administration, blood was collected from the caudal vena cava, thereby obtaining plasma. The human EPO […] was quantified by using the obtained blood plasma and Erythropoietin (EPO) Human Elisa Kit (Abcam.plc). The quantitative value is described as a relative amount of EPO protein in a case where Comparative Example is set to 1.
For orientation: ELISA stands for enzyme-linked immunosorbent assay.

Consider `CCCCCCCCOC(=O)CCCCCCCCC(CCCCCC)OC(=O)OCCN(CCOC(=O)C(CCCC)CCCCCC)CCN(CC)CC` (stereo not shown) [Compound 1, octyl 6-(2-((2-butyloctanoyl)oxy)ethyl)-3-ethyl-12-hexyl-10-oxo-9,11-dioxa-3,6-diazahenicosan-21-oate], for which, in data set [1], the “Particle diameter (nm)” value is recorded as 112 nm and the PdI is reported as 0.03. For the same compound, the “Nucleic acid encapsulation rate” value in data set [2] is given as 89%.
As for `CCCCCCOC(=O)CCCCCCCCC(CCCCCC)OC(=O)OCCN(CCOC(=O)C(CCCCCC)CCCCCC)CCN(CC)CC` (stereo not shown) [Compound 2, hexyl 3-ethyl-12-hexyl-6-(2-((2-hexyloctanoyl)oxy)ethyl)-10-oxo-9,11-dioxa-3,6-diazahenicosan-21-oate], in data set [1], the “Particle diameter (nm)” value came to 103 nm and the PdI is 0.03. The “Nucleic acid encapsulation rate” value in data set [2] is reported as 90%. Also, in the data set with ICR mice, the “Relative amount of EPO protein (with respect to Comparative Example 1)” value (from here on “Relative amount of EPO protein”) is listed as 1.61.
For the compound `CCCCCCCCC(CCCCCCCC)C(=O)OCCN(CCOC(=O)OC(CCCCCC)CCCC(=O)OCCCCCCC)CCN(CC)CC` (stereo not shown) [Compound 4, heptyl 3-ethyl-12-hexyl-6-(2-((2-octyldecanoyl)oxy)ethyl)-10-oxo-9,11-dioxa-3,6-diazahexadecan-1 6-oate], in data set [1], the “Particle diameter (nm)” value was found to be 85 nm and the PdI is 0.12. The “Nucleic acid encapsulation rate” value in data set [2] is 90%. In addition, the “Relative amount of EPO protein” value with ICR mice amounted to 3.09.
In the case of `CCCCCCCOC(=O)CCCC(CCCCCC)OC(=O)OCCN(CCOC(=O)CC(CCCCCCC)CCCCCCC)CCN(CC)CC` (stereo not shown) [Compound 6, heptyl 3-ethyl-6-(2-((3-heptyldecanoyl)oxy)ethyl)-12-hexyl-10-oxo-9,11-dioxa-3,6-diazahexadecan-16-oate], in data set [1], the “Particle diameter (nm)” value came out at 98 nm and the PdI came to 0.11. In addition, the “Nucleic acid encapsulation rate” value in data set [2] turned out to be 77%. Further, the “Relative amount of EPO protein” value in the data set with ICR mice worked out at 4.91.
Turning to `CCCCCCCCOC(=O)CCCC(CCCCCC)OC(=O)OCCN(CCOC(=O)C(CCCCCCC)CCCCCCC)CCN(CC)CC` (stereo not shown) [Compound 7, octyl 3-ethyl-6-(2-((2-heptylnonanoyl)oxy)ethyl)-12-hexyl-10-oxo-9,11-dioxa-3,6-diazahexadecan-16-oate], in data set [1], the “Particle diameter (nm)” value came out at 82 nm and the PdI is given as 0.12. In addition, the “Nucleic acid encapsulation rate” value in data set [2] worked out at 79%. In addition, the “Relative amount of EPO protein” value with ICR mice came out at 3.82.
Consider `CCCCCCCCOC(=O)CCCC(CCCCCC)OC(=O)OCCN(CCOC(=O)CC(CCCCCCC)CCCCCCC)CCN(CC)CC` (stereo not shown) [Compound 8, octyl 3-ethyl-6-(2-((3-heptyldecanoyl)oxy)ethyl)-12-hexyl-10-oxo-9,11-dioxa-3,6-diazahexadecan-16-oate], for which, in data set [1], the “Particle diameter (nm)” value came out at 89 nm and the PdI is 0.12. In addition, the “Nucleic acid encapsulation rate” value in data set [2] stood at 78%. Besides, the “Relative amount of EPO protein” value in the data set on ICR mice was 3.79.
In the case of `CCCCCCCC(CCCCCCC)CC(=O)OCCN(CCOC(=O)OC(CCCCCC)CCCC(=O)OCC(CCCCC)CCCCC)CCN(CC)CC` (stereo not shown) [Compound 9, 2-pentylheptyl 3-ethyl-6-(2-((3-heptyldecanoyl)oxy)ethyl)-12-hexyl-10-oxo-9,11-dioxa-3,6-diazahexadecan-16-oate], in data set [1], the “Particle diameter (nm)” value is recorded as 77 nm and the PdI came to 0.13. The “Nucleic acid encapsulation rate” value in data set [2] was 85%. For the same compound, the “Relative amount of EPO protein” value in the data set with ICR mice is on record as 2.30.
As to `CCCCCCCC(CCCCCCC)CC(=O)OCCN(CCOC(=O)OC(CCCCCC)CCCC(=O)OCC(CCCCCC)CCCCCC)CCN(CC)CC` (stereo not shown) [Compound 10, 2-hexyloctyl 3-ethyl-6-(2-((3-heptyldecanoyl)oxy)ethyl)-12-hexyl-10-oxo-9,11-dioxa-3,6-diazahexadecan-16-oate], in data set [1], the “Particle diameter (nm)” value amounted to 75 nm and the PdI was 0.10. In data set [2], the “Nucleic acid encapsulation rate” value was determined as 86%. In addition, the “Relative amount of EPO protein” value in the data set with ICR mice is 1.72.
The matching figures for `CCCCCCCCCC(CCCCCCCCC)C(=O)OCCN(CCOC(=O)OC(CCCCCC)CCCC(=O)OCCCCCCC)CCN(CC)CC` (stereo not shown) [Compound 17, heptyl 3-ethyl-12-hexyl-6-(2-((2-nonylundecanoyl)oxy)ethyl)-10-oxo-9,11-dioxa-3,6-diazahexadecan-16-oate]: 79 nm, 0.15, 95% and 1.91.
For `CCCCCCCCCCC(CCCCCCCCCC)C(=O)OCCN(CCOC(=O)OC(CCCCCC)CCCC(=O)OCCCCCCC)CCN(CC)CC` (stereo not shown) [Compound 18, heptyl 6-(2-((2-decyldodecanoyl)oxy)ethyl)-3-ethyl-12-hexyl-10-oxo-9,11-dioxa-3,6-diazahexadecan-16-oate], in that order: 79 nm, 0.13, 95% and 1.30.
Regarding `CCCCCCCCC(CCCCCC)C(=O)OCCN(CCOC(=O)OC(CCCCCC)CCCC(=O)OCCCCCCC)CCN(CC)CC` (stereo not shown) [Compound 19, heptyl 3-ethyl-12-hexyl-6-(2-((2-hexyldecanoyl)oxy)ethyl)-10-oxo-9,11-dioxa-3,6-diazahexadecan-1 6-oate], in data set [1], the “Particle diameter (nm)” value is given as 91 nm and the PdI came out at 0.09. Further, the “Nucleic acid encapsulation rate” value in data set [2] was 94%. Besides, the “Relative amount of EPO protein” value with ICR mice was determined as 4.31.
As for `CCCCCCCOC(=O)CCCC(CCCCCC)OC(=O)OCCN(CCCN(CC)CC)CCOC(=O)C(CCCCCC)CCCCCC` (stereo not shown) [Compound 20, heptyl 3-ethyl-13-hexyl-7-(2-((2-hexyloctanoyl)oxy)ethyl)-11-oxo-10,12-dioxa-3,7-diazaheptadecan-17-oate], in data set [1], the “Particle diameter (nm)” value was 137 nm and the PdI amounted to 0.10. Moreover, the “Nucleic acid encapsulation rate” value in data set [2] is recorded as 87%. Further, the “Relative amount of EPO protein” value in the data set on ICR mice turned out to be 1.68.
Take `CCCCCCCOC(=O)CCCCC(CCCCCC)OC(=O)OCCN(CCCN(CC)CC)CCOC(=O)C(CCCCCC)CCCCCC` (stereo not shown) [Compound 21, heptyl 3-ethyl-13-hexyl-7-(2-((2-hexyloctanoyl)oxy)ethyl)-11-oxo-10,12-dioxa-3,7-diazaoctadecan-1 8-oate]: in data set [1], the “Particle diameter (nm)” value is 129 nm and the PdI is recorded as 0.12. In addition, the “Nucleic acid encapsulation rate” value in data set [2] was 89%. Further, in the data set on ICR mice, the “Relative amount of EPO protein” value is 1.65.
For the compound `CCCCCCCOC(=O)CCCCC(CCCCCC)OC(=O)OCCN(CCCN(CC)CC)CCOC(=O)C(CCCCCCC)CCCCCCC` (stereo not shown) [Compound 22, heptyl 3-ethyl-7-(2-((2-heptylnonanoyl)oxy)ethyl)-13-hexyl-11-oxo-10,12-dioxa-3,7-diazaoctadecan-18-oate], in data set [1], the “Particle diameter (nm)” value was 95 nm and the PdI was 0.10. In data set [2], the “Nucleic acid encapsulation rate” value was found to be 94%. In addition, the “Relative amount of EPO protein” value with ICR mice was found to be 6.09.

(Values after patent publication US20260001834A1, “COMPOUND OR SALT THEREOF, LIPID COMPOSITION, PHARMACEUTICAL COMPOSITION, AND DELIVERY CARRIER” (FUJIFILM Corporation, priority 2023, published 2026).)
